Source: patent US4656178A (priority 1985, dated 1987)
Counter-ions that a name gives are not always drawn.

Assays:
[1] = resorptive effect and toxicity (general state); assay type: in vivo, mice, rats, rabbits and dogs
Description: (§1) The resorptive effect and toxicity of the preparation according to the present invention were studied on mice, rats, rabbits and dogs.

[2] = tested on: cardiotoxic effect of the preparation; assay: sodium bicarbonate at cardiotoxic effect of the preparation in dogs; settings: toxic doses
[3] = long-time administration, histological analysis of inner organs; assay type: in vivo, laboratory animals (dogs, rabbits, rats); settings: 10 mg/kg
[4] = effect on arterial pressure and breathing in narcotized cats and dogs; assay type: in vivo; settings: intravenous, 0.05, 0.1, 0.5, 1 mg/kg
Description: With the view to evaluate the effect of the preparation according to the present invention on arterial pressure and breathing, experiments have been carried out on narcotized cats and dogs.

[5] = tested on: coronary blood circulation; assay: volume rate of the coronary blood flow in cats; assay type: in vivo
Method: The effect of the pharmaceutical composition according to the present invention on the coronary blood circulation was studied in acute experiments on cats by the method of recording of the volume rate of the coronary blood flow. […] The introduction of 1 mg/kg of the preparation results in an increased volume rate of the coronary blood flow by 30-80% during a long time.

[6] = sugar, protein and enzymes in rats' blood; assay type: in vivo; settings: 1 mg/kg, single and lasting administration
[7] = 6-month histological toxicity, rats; assay type: in vivo; settings: per os, 1 mg/kg, 6 months
[8] = local anesthetic effect in intact rabbits; assay type: in vivo
Method: The local anesthetic effect of the preparation was studied on 14 intact rabbits. […] The results of the experiments on determination of the ability of the preparation to cause infiltration anesthesia have shown that 10-15 minutes after intracutaneous administration, to rabbits, of 0.01-0.05% and 0.1% solutions of the preparation anesthesia occurs which is characterized by an increased threshold of a pain irritation; the duration of the effect is 20 to 48 hours. Under the same conditions of the experiment, the local anesthetic effect of a 0.5% solution of novocaine lasts for 90 minutes on the average.

[9] = tested on: central adreno- and cholinergic processes; assay: central effects (sedative, adreno-, cholinergic, serotonin); settings: in vivo
[10] = tested on: arrhythmia caused by electrical irritation; assay: arrhythmia caused by electrical irritation of the right auricle and apex of the left ventricle; assay type: in vivo, dogs and cats
[11] = tested on: arrhythmia induced by adrenalin; assay: arrhythmia induced by adrenalin in dogs with ligated coronary artery; assay type: in vivo; settings: 0.1-0.2 mg/kg
aconitine arrhythmia = assay: animal or person; assay type: in vivo, rats
Method: The assessment of the antiarrhythmic activity of the preparation was effected in acute and chronical experiments on rats, rabbits, cats and dogs. Various experimental models of arrhythmia were also used.
The atrioventricular arrhythmia caused by aconitine is one of the most reliable models for forecasting the efficiency of the antiarrhythmic action of the novel preparation in clinics. The experiments were conducted on both narcotized and non-narcotized animals. The preparation was administered per os, intramuscularly, intraperitoneally and intravenously 5 to 15 minutes prior to or 3-5 minutes after the administration of aconitine.
In doses of 0.2-0.5 mg/kg the preparation of this invention prevents the appearance of aconitine arrhythmia in 100% of the rats. […] Under similar experimental conditions a preliminary administration of novocainamide in the dose of 60 mg/kg intravenously produced an antiarrhythmic effect in 50% of the animals.

carcinogenicity = assay type: in vivo; settings: subcutaneously and per os, 0.5-2 mg/kg, 6 months, observation 2 years
allergenic effect = assay type: in vivo; settings: 12 guinea pigs and 6 rabbits
[12] = 6-month histological toxicity, dogs; assay type: in vivo; settings: per os, 1 and 5 mg/kg, 6 months
[13] = tested on: lethal fibrillation of the heart induced by aconitine; assay: prevention of lethal fibrillation of the heart induced by aconitine in rats; assay type: in vivo; settings: 0.5 and 1 mg/kg
[14] = pharmacological effects, summary; settings: in vivo
antiinflammatory effect = assay type: in vivo; settings: doses of 1-5 mg/kg
cardiac contractions = assay: strength of cardiac contractions in narcotized rats and guinea pigs; assay type: in vivo; settings: intravenous, 0.1, 0.5, 1, 2 mg/kg
Method: To find out a negative inotropic effect on the heart tissue, two series of experiments have been carried out:
(2) the study of the preparation according to the present invention on the strength of cardiac contractions on narcotized (sodium ethaminal, 50-60 mg/kg intraperitoneally) rats and guinea pigs.

lethal dose in rabbits = assay type: in vivo
Method: as §1
In doses of 5-6 mg/kg intravenously the preparation according to the present invention causes death of dogs and in doses of 3-4 mg/kg it is lethal for rabbits.

[15] = duration of antiarrhythmic effect compared with quinidine and novocainamide; settings: in vivo
Method: The duration of the antiarrhythmic action of the preparation was studied on rats intravenously administered with aconitine 1, 2, 4, 6, 24 and 48 hours after the preparation administration per os.

For `CCN1CC2(OC(=O)c3ccccc3NC(C)=O)CCC(OC)C34C1C(CC23)C1(O)CC(OC)C2CC4C1(O)C2OC` (stereo not shown) [lappaconitine hydrobromide], which “changes in general state of animals” value ([1]; 0.1-1 mg/kg intravenously, 1-5 mg/kg intraperitoneally, 5-20 mg/kg per os) is on record?
Its value is “no considerable changes in the general state of the animals are observed”.

And the “signs in mice and rats” value ([1]; higher doses, 5 minutes on average after administration)?
Its value is “adynamia, delayed responses, weakening of the muscular tension, rarification and deepening of breathing, lowering of the body temperature”.

And the additional signs ([1]; sublethal and lethal doses)?
The additional signs was “hypersalivation, diarrhea, acute disturbances of breathing”.

And the “arterial pressure in overdosing” value [2]?
Its value is “reduction of the arterial pressure”.

What about the “structural changes in inner organs” value [3] of the same compound?
Its value is “structural changes in the inner organs”.

What about the “influence on arterial pressure and breathing” value [4] of the same compound?
The value was “did not exert any influence on the arterial pressure and breathing”.

And the “animals with increased coronary blood flow” value ([5]; 0.5 mg/kg)?
Its value is 40%.

And the “increase of coronary blood flow” value ([5]; 0.5 mg/kg, in 40% of the animals)?
Its value is 15-30%.

And the “increase of volume rate of coronary blood flow” value ([5]; 1 mg/kg, during a long time)?
Its value is 30-80%.

What about the “effect on coronary blood flow” value ([5]; intravenous, 0.1 mg/kg) of the same compound?
The value was “does not provide any effect”.

What about the “content of sugar, protein and enzymes in blood” value [6] of the same compound?
Its value is “does not result in substantial changes”.

And the “destructive changes of inner organs and tissues” value [7]?
The value was “no destructive changes on the part of inner organs and tissues”.

What about the “anesthetic activity relative to tetracaine hydrochloride” value ([8]; 14 intact rabbits) of the same compound?
Its value is “matches tetracaine hydrochloride in its anesthetic activity”.

And the “depth of anesthesia relative to tetracaine hydrochloride” value ([8]; rabbit, in vivo)?
The value was “inferior to tetracaine hydrochloride”.

What about the “duration of anesthetic effect relative to tetracaine hydrochloride” value ([8]; rabbit, in vivo) of the same compound?
The value was “more than 6 times”.

What about the central sedative effect [9] of the same compound?
Its central sedative effect is “weak central sedative effect”.

And the “effect on central adreno- and cholinergic processes” value [9]?
Its value is “does not provide any substantial effect on central adreno- and cholinergic processes”.

And the serotonin-negative effect [9]?
The serotonin-negative effect was “weak”.

What about the “arterial pressure and amplitude of the heart beat” value ([10]; 0.25 and 0.5 mg/kg) of the same compound?
The value was “not changed”.

And the “duration of antiarrhythmic effect” value ([10]; 0.25 and 0.5 mg/kg)?
The value was 2 to 3 h.

What about the “arrest of arrhythmia caused by electrical irritation” value ([10]; 0.25 and 0.5 mg/kg intravenously, 7 dogs and 10 cats) of the same compound?
The value was “fully stops the origination of arrhythmia”.

And the “onset of antiarrhythmic effect” value ([10]; after administration, 0.25 and 0.5 mg/kg)?
The value was 3 to 7 min.

And the “activity relative to quinidine and novocainamide (times superior)” value ([10]; dog, in vivo)?
Its value is 40 times.

And the duration of effect [11]?
Its duration of effect is “more than 2 hours”.

What about the “effect on arrhythmia induced by adrenalin” value [11] of the same compound?
The value was “cuts short the arrhythmia induced by adrenalin”.

And the “effect on arterial pressure and on adrenalin hypertension” value [11]?
The value was “does not affect the level of arterial pressure or the height of elevation of arterial pressure (hypertension) caused by adrenalin”.

What about the “time to maximum effect” value [11] of the same compound?
Its value is 5 to 10 min.

What about the minimal effective dose (aconitine arrhythmia; Rattus norvegicus, read-out: dose from which the antiarrhythmic effect is revealed) of the same compound?
Its minimal effective dose is 0.03 mg/kg.

What about the “animals in which appearance of aconitine arrhythmia is prevented” value (aconitine arrhythmia; doses of 0.2-0.5 mg/kg, rats) of the same compound?
The value was 100%.

And the “antiarrhythmic index (LD50/ED50)” value (aconitine arrhythmia; prophylactic effect, aconitine arrhythmia)?
Its value is 118.0.

What about the carcinogenic properties (carcinogenicity) of the same compound?
Its carcinogenic properties is “no carcinogenic properties”.

And the allergenic effect (allergenic effect)?
Its allergenic effect is “no allergenic effect”.

And the “destructive changes of inner organs and tissues” value [12]?
Its value is “no destructive changes on the part of inner organs and tissues”.

And the “prevention of lethal fibrillation of the heart” value [13]?
The value was “fully prevents a lethal fibrillation of the heart”.

And the moderate additional effects [14]?
Its moderate additional effects is “moderate coronarydilating, spasmolytic, local anesthetic, anti-inflammatory and sedative effects”.

And the “reduction of systemic arterial pressure and negative inotropic effect” value [14]?
Its value is “not accompanied by reduction of the systemic arterial pressure, and a negative inotropic effect on the cardiac tissue”.

And the antiinflammatory effect (antiinflammatory effect)?
The antiinflammatory effect was “pronounced antiinflammatory effect”.

And the “influence on amplitude of cardiac contractions” value (cardiac contractions)?
Its value is “no influence on the amplitude of cardiac contractions”.

What about the lethal dose (lethal dose in rabbits) of the same compound?
Its lethal dose is 3 to 4 mg/kg.

And the “duration of effect relative to quinidine and novocainamide” value [15]?
The value was 10 times.
